Test results as given in ChEMBL document CHEMBL4304793, “Evaluation of a Series of β-Secretase 1 Inhibitors Containing Novel Heteroaryl-Fused-Piperazine Amidine Warheads” (ACS Med Chem Lett, 2019).

Test: Dissociation constant, pKa of compound
Assay type: physicochemical

| pKa | SMILES |
| --- | --- |
| 10.3 | C[C@@]1(c2cc(NC(=O)c3ccc(C#N)cn3)ccc2F)Cn2cccc2C(N)=N1 |
| 6.5 | C[C@@]1(c2cc(NC(=O)c3ccc(C#N)cn3)ccc2F)Cn2ncnc2C(N)=N1 |
| 7.1 | C[C@@]1(c2cc(NC(=O)c3ccc(C#N)cn3)ccc2F)Cn2nncc2C(N)=N1 |
| 5.1 | C[C@@]1(c2cc(NC(=O)c3ccc(C#N)cn3)ccc2F)Cn2nnnc2C(N)=N1 |
| 6.4 | C[C@@]1(c2cc(NC(=O)c3ccc(C#N)cn3)ccc2F)Cn2cnnc2C(N)=N1 |
| 8.5 | C[C@@]1(c2cccc(NC(=O)c3ccc(C#N)cn3)c2)Cn2nccc2C(N)=N1 |
| 8.2 | C[C@@]1(c2cc(NC(=O)c3ccc(C#N)cn3)ccc2F)Cn2ccnc2C(N)=N1 |
| 9 | C[C@@]1(c2cc(NC(=O)c3ccc(C#N)cn3)ccc2F)Cn2cncc2C(N)=N1 |
